Source: article PMC7357169, “Blinded, Multicenter Evaluation of Drug-induced Changes in Contractility Using Human-induced Pluripotent Stem Cell-derived Cardiomyocytes” (Toxicological Sciences, 2020)

Key:
[1] = system: hiPSC-CM EHTs; experiment: EHT contractility with beat rate slowed by 300 nM ivabradine and electrical pacing 0.5-2.0 Hz; assay type: cell-based, human; details: EHTs with 300 nM ivabradine, paced; only at 0.5 and 0.7 Hz, sometimes at 1 Hz, never at 1.5 or 2 Hz; high concentration bolus
Protocol: We extended these studies to the 3D EHT platform, this time slowing spontaneous beating to < 0.5 Hz with 300 nM ivabradine, a pharmacological blocker of the “funny” If current ([Bois et al., 1996]). […] Whereas force-frequency relationships was negative above 1.5 Hz, it was positive between 0.5 and 1.5 Hz, evidenced by a 147% increase in force generation concurrent with significant shortening of CT and RT (Supplementary Figure 6). We therefore re-evaluated 6 of the PIs in the presence of 300 nM ivabradine with electrical pacing at 0.5, 0.7, 1.0, 1.5, and 2.0 Hz. These also included epinephrine, levosimendan, and pimobendan, which had been incorrectly predicted by EHT:R-PAT and/or EHT:ERC platform-cell combinations. […] Thus, in both 2D and 3D configurations, lower beating frequencies led to increased predictivity for PIs.
Figure 5. Slowed beat rate increases the predictivity of positive inotropes (PIs) in 3D engineered heart tissues (EHTs). Contraction analysis was carried out using EHTs with 6 of the PIs from the drug test set: epinephrine (Epi), forskolin (For), levosimendan (Lev), pimobendan (Pim), dobutamine (Dob), and milrinone (Mil) which had been predicted with variable accuracy (Figure 4A, web tool). […] Scatter plots show percentage changes relative to baseline at respective frequency. Averaged peaks for force are shown for baseline (BL, black peaks) versus after treatment in EHTs paced at 0.5 Hz (blue peaks) or 2.0 Hz (red peaks). Dunnett’s stats versus baseline at respective frequency: *p < .05; **p < .01; ***p < .001; ****p < .0001.
Supplementary Figure 6. Positive force frequency relationship in EHTs paced between 0.5 and 1.5 Hz. Spontaneous beat rate of EHTs was reduced by 3 hour pre-treatment with 300 nM ivabradine, an If current inhibitor. […] CA increased from 0.5 to 1.5 Hz but plateaued and declined at higher frequencies. These changes were reflected in the CT and RT data. Dunnett's stats vs vehicle control: *, P<0.05; **, P<0.01; ***, P<0.001; ****, P<0.0001.

[2] = system: cardiac contractility; details: cited from earlier work; for EC50: read-out: Expected effect on contractility in isolated cardiomyocytes/heart muscles, EC50
[3] = system: heart; parameters: method as in Refs column of Supplementary Table 1; details: Refs of Supplementary Table 1; cited from earlier work
[4] = cited from earlier work; for FTPC: free therapeutic plasma concentration, Refs of Supplementary Table 1; for FPTC (free plasma therapeutic concentration): ref Supplementary Table 1
[5] = system: hiPSC-CMs; experiment: Training set contractility in hiPSC-CMs on TTM, CellOPTIQ and EHT platforms; assay type: cell-based, human; details: for inotropy (CA) response: trend or significant response, Supplementary Figure 3
Protocol: The training set of 8 drugs was used to test and refine protocols. […] For each parameter, the percentage change in drug-treated samples relative to their respective vehicle control was calculated using the formula ([drug/drug baseline]/[vehicle/vehicle baseline])*100–100. […] These studies allowed unification of SOPs, although physical and technical constraints between the platforms meant that some unavoidable differences remained (Supplementary Table 2).
Supplementary Figure 3: Training sets to unify drug testing procedures. […] The percentage change in drug treated samples is relative to their respective vehicle control. Unpaired T-test. * p<0.05; ** p<0.01; *** p<0.001; **** p<0.0001.

[6] = system: ERC18 hiPSC-CM EHTs; experiment: Engineered heart tissue (EHT) contractility, ERC18 hiPSC-CMs; assay type: cell-based, human; details: for changes in CA on the EHT platform: one range given for three NE drugs incorrectly predicted as PIs, EHT: ERC18 per Table 1
Description: (§1) To generate EHTs, in-house hiPSC lines, R-PAT, and ERC18, were differentiated using 2D-monolayer- (R-PAT) or 3D-embryoid body- (ERC18) protocol and fabricated as recently described ([Breckwoldt et al., 2017]; [Mosqueira et al., 2018]). In brief, casting molds were generated in 24-well plates with 2% agarose (Invitrogen, 15510-019) and Polytetrafluorethylene (PTFE) spacers (EHT Technologies, C0002). PDMS racks (EHT Technologies, C0001) were placed in the 24-well plates so that pairs of PDMS posts reached into each agarose casting mold. A reconstitution mix was prepared consisting of: 1 × 10^6 hiPSC-CM; 81.9 µl cardiomyocyte medium; 10 µl Matrigel basement membrane matrix (BD 354234); 5.5 µl 2 × DMEM; 0.1 µl Y-27632 (10 mM; Biorbyt orb60104); 2.5 µl bovine fibrinogen (5 mg/ml; Sigma F4753). Reconstitution mix (97 µl) was mixed with prealiquoted 3 µl thrombin (100 U/ml; Biopur BP11-10-1104) and pipetted into the agarose casting mold. GCAMP6f-lentiviral particles (multiplicity of infection: 0.3, functional titer) were included in the EHT reconstitution mix for Ca^2+ transient analysis. EHTs started to beat coherently after 10–14 days and were analyzed for contraction and Ca^2+ transient at ≥ 20 days.
(§2) EHTs were transferred from culture medium into preequilibrated (37°C, 40% O2, 7% CO2), modified Tyrode’s solution (in mM, 120 NaCl; 22.6 NaHCO3; 5.4 KCl; 5 glucose; 1 MgCl2; 0.4 NaH2PO4; 0.6–1 CaCl2; 0.05 Na2EDTA; 25 HEPES) for R-PAT and into DMEM (Gibco 21068028; in mM, 110 NaCl; 44 NaHCO3; 5 KCl; 25 glucose; 0.8 MgSO4; 0.9 NaH2PO4, 0.6–1 CaCl2; 25 HEPES, and vitamins and amino acids) for ERC18 EHTs 40 min before analysis to equilibrate to the testing medium. After equilibration, the cumulative concentration response curve was started with baseline recording in preequilibrated medium with Ca^2+ concentration of 0.6–1 mM.
(§3) Contractility analysis was via automated video-optical contractility analysis was performed in 24-well cell culture plates (Nunc, 122475) ([Breckwoldt et al., 2017]). Video files of EHT contractions were analyzed by automated EHT figure recognition software (EHT Technologies, A0001). Top and bottom ends of EHT contour were identified and followed during the course of recording. Force was calculated based on shortening during contraction, elastic propensity, and geometry of PDMS posts.
(§4) Data were normalized to a pool of time-matched controls (contractility analysis, ERC18: n = 22 EHTs/7.0 experiments; R-PAT: 16 EHTs/5.0 experiments; combined contractility- and Ca^2+ transient-analysis: 21 EHTs/8.0 experiments) used for all contractility/combined contractility- and Ca^2+ transient-measurements. Data are plotted as relative change to the mean baseline, normalized to pool time control. Statistical significance was evaluated by GraphPad Software, 1-way ANOVA with Dunnett’s multiple comparisons test versus baseline.

[7] = system: R-PAT hiPSC-CMs; experiment: CellOPTIQ (CO) contractility, R-PAT hiPSC-CM 2D monolayers; assay type: cell-based, human; details: mean maximum measurable percentage change relative to baseline, at concentration of column Conc μM or cell superscript
Protocol: Manufacturer instructions were followed for the commercial hiPSC lines. […] The same plates were used for R-PAT hiPSC-CMs, which were seeded at 40 000 cells/well and maintained until days 20 and 21 of differentiation before use.
hiPSC-CMs in 96-well plate were transiently loaded in 50 µl/well of SFM containing FluoVolt (1:200 part B, 1:2000 part A; Life Tech, F10488) for 20 min at 37°C and 5% CO2. After incubation, the medium was replaced with 200 μl/well of SFM. Plates were then incubated at 37°C and 5% CO2 for 15 min before recording, which were made using a ×40 (NAO.6) objective at 10 KHz. […] Baselines and drug addition were as described for the TTM system. Electrophysiology data were analyzed using CellOPTIQ proprietary software of Clyde Biosciences and were normalized to a maximum amplitude of 1 and minimum of 0 to standardize height for comparison of traces created in OriginPro (OriginLab version 7.5). Contractility data were analyzed based on pixel displacement using an ImageJ plug-in. This plug-in uses a sum of absolute differences algorithm.

[8] = system: R-PAT hiPSC-CM EHTs; experiment: Engineered heart tissue (EHT) contractility, R-PAT hiPSC-CMs; assay type: cell-based, human
Description: as §1, §2, §3, §4

[9] = isolated cardiomyocytes/heart muscles, Refs of Supplementary Table 1
[10] = EHT: R-PAT, mean maximum measurable percentage change relative to baseline, at concentration of column Conc μM or cell superscript
[11] = EHT: ERC18, mean maximum measurable percentage change relative to baseline, at concentration of column Conc μM or cell superscript

SMILES | EC50 [2, 9] [nM] | Expected cardiac effects in vivo [3] | FTPC [4] [µM] | FPTC (free plasma therapeutic concentration) [4] [µM] | inotropy (CA) response [5] | Expected effect on contractility in isolated cardiomyocytes/heart muscles [2, 9] | other results
COc1ccc(-c2nc3ccc(C4=NNC(=O)CC4C)cc3[nH]2)cc1 (stereo not drawn) [Pimobendan] | 34000 | PI, small PC | 0.005 to 0.01 | 0.005 to 0.01 | – | – | CA response [1]: increased contraction amplitude
COC(=O)C1=C(C)NC(C)=C(C(=O)OC)C1c1ccccc1[N+](=O)[O-] [nifedipine] | – | Small NI (direct) overridden by adrenergic activation, PC (indirect) | – | – | negative inotropy | – | IC50 ([2]; negative inotropy, isolated cardiomyocytes/heart muscles, Refs of Supplementary Table 1, read-out: Expected effect on contractility in isolated cardiomyocytes/heart muscles, IC50): 100 nM
CC[C@H](C)C(=O)O[C@H]1C[C@H](O)C=C2C=C[C@H](C)[C@H](CC[C@@H](O)C[C@@H](O)CC(=O)O)[C@H]21 [Pravastatin] | – | None | 0.018 | 0.018 | – | None | changes in CA on the EHT platform [6]: 19%–33
CC(C)NCC(O)c1ccc(O)c(O)c1 (stereo not drawn) [isoprenaline] | 10 | PI, PC | 0.0095 | – | positive inotropy | – | CT and RT response ([5]; 3D EHTs): decreased of both CT and RT
C[C@H]1O[C@@H](O[C@H]2[C@@H](O)C[C@H](O[C@H]3[C@@H](O)C[C@H](O[C@H]4CC[C@@]5(C)[C@H](CC[C@@H]6[C@@H]5C[C@@H](O)[C@]5(C)[C@@H](C7=CC(=O)OC7)CC[C@]65O)C4)O[C@@H]3C)O[C@@H]2C)C[C@H](O)[C@@H]1O [digoxin] | – | PI, arrhythmias | – | – | positive inotropy | PI+ PL (< 1 µM, slowly developing, t1/2 conc.-dependent) NI + diast. shortening (>1 µM) | RT response ([5]; 2D configuration): tended to increase RT
C[C@H](N[C@@H](CCc1ccccc1)C(=O)O)C(=O)N1CCC[C@H]1C(=O)O [Enalaprilat] | – | None | 0.12 | 0.12 | – | None | CA (contraction amplitude) [7]: +54%; CT (contraction time) [7]: +20 ^10 µM %; RT (relaxation time) [7]: +34%; CA (contraction amplitude) [8, 10]: +33%; CT (contraction time) [8, 10]: +5 ^1 µM %; RT (relaxation time) [8, 10]: −14%; changes in CA on the EHT platform ([8]; one range given for three NE drugs incorrectly predicted as PIs, EHT: R-PAT per Table 1): 19%–33; CA (contraction amplitude) [6, 11]: +2 ^10 µM %; CT (contraction time) [6, 11]: −3%; RT (relaxation time) [6, 11]: −4%; inotropic effect via bradykinin B1 receptor activation ([2]; ACE inhibitors, ref Ignjatovic et al., 2002): positive inotropic effect
CCCCNC(=O)NS(=O)(=O)c1ccc(C)cc1 [Tolbutamide] | ~30000 | None or PI (dogs, men) | – | – | – | None (canine CM) or small PI (rabbit atria, rat heart) | changes in CA on the EHT platform [6]: 19%–33
CNC[C@H](O)c1ccc(O)c(O)c1 [Epinephrine] | 100 | PI, PC | 0.0002 to 0.050 | 0.0002 to 0.05 | – | – | CA response [1]: increased contraction amplitude
COC(=O)N1CCN(Cc2cccc(NC(=O)Nc3ccc(C)nc3)c2F)CC1 [Omecamtiv mecarbil] | 1000 | PI, prolonged syst. ejection time, small decrease in heart rate | 0.05 to 0.42 | – | – | PI, NCl, NL, diastolic shortening (dog myocytes) | increased CT ([8]; hiPSC-CMs configured as 3D EHTs, blinded phase, without convincing evidence for increased CA): approximately +40%
